Patent US9550796B2, “Pyrrolopyrrolone derivatives and their use as BET inhibitors” (NOVARTIS AG, priority 2013, dated 2017)

How the values were obtained:
BRD2 = BRD2 (Homo sapiens (Human), UniProt P25440); experiment: TR-FRET in-vitro binding assay for BRD2; conditions: 45 nM His-Brd2(60-472), acetyl-histone H4 (AcK 5, 8, 12, 16) peptide
Method: TR-FRET In-Vitro Binding Assays for BRD2, BRD3, and BRD4: All assays were performed in 384-well microtiter plates. […] Liquid handling and incubation steps were done on an Innovadyne Nanodrop Express equipped with a robotic arm (Thermo CatX, Perkin Elmer/Caliper Twister II) and an incubator (Liconic STX40, Thermo Cytomat 2C450). The assay plates were prepared by addition of 50 nl per well of compound solution in 90% DMSO HummingBird nanodispenser (Zinsser Analytic). […] Reactions were incubated at 30° C. for 35 minutes. […] After 35 minutes incubation at 30° C., plates were measured in a Perkin Elmer EnVision multilabel reader. […] The stock solutions were stored at […] if not used immediately. For the test procedure the vials were defrosted and identified by a scanner whereby a working sheet was generated that guided the subsequent working steps. Compound dilutions were made in 96 well plates. This format enabled the assay of maximally […] at 8 concentrations (single points) including 4 reference compounds, if desired (known BET inhibitors from the prior art, for this and other assays of the type disclosed herein). The dilution protocol included the production of “pre-dilution plates”, “master plates” and “assay plates”. Polypropylene 96-well plates were used as pre-dilution plates. […] All dilution steps were done on a HamiltonSTAR robot. […] Identical “assay plates” were then prepared by pipetting 50 nL each of compound dilutions of the “master plates” into 384-well “assay plates” by means of a HummingBird 384-channel dispenser. These plates were used directly for the assay which was performed in a total volume of 13.55 μL.

BRD3 = BRD3 (Homo sapiens (Human), UniProt Q15059); experiment: TR-FRET in-vitro binding assay for BRD3; conditions: 45 nM His-Brd3(20-477), acetyl-histone H4 (AcK 5, 8, 12, 16) peptide
BRD3, sequence (Q15059 20-477): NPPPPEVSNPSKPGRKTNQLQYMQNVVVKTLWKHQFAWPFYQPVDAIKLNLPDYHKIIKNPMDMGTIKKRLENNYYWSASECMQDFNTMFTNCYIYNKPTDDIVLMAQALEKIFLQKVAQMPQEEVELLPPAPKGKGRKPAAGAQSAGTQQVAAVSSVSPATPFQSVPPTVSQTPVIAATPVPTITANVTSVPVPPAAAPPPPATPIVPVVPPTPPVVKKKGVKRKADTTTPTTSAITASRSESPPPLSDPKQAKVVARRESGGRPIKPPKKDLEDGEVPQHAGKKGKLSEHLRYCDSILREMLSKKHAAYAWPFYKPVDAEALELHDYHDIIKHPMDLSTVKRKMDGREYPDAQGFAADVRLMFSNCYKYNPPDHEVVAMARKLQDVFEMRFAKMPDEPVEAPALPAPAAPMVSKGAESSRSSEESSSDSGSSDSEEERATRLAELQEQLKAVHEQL
Method in brief: (§1)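 TR-FRET binding read after 35 min incubation at 30° C. Compounds dispensed from 90% DMSO solutions and tested at 8 concentrations in a 13.55 μL total reaction volume.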

BRD4 = BRD4 (Homo sapiens (Human), UniProt O60885); experiment: TR-FRET in-vitro binding assay for BRD4; conditions: 45 nM His-Brd4(44-477), acetyl-histone H4 (AcK 5, 8, 12, 16) peptide
Method in brief: as §1

THP-1 = experiment: Cell growth inhibition assay (CellTiter-Glo), THP-1; type: cell-based, human; conditions: THP-1 cells, 4 days; for GI50: Homo sapiens, 96 h, half-maximal growth inhibition; for THP-1 TGI: total growth inhibition
Method in brief: (§2)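 4-day CTG ATP readout, 37 °C/5% CO2; top conc 10 μM, 3-fold dilutions; 0.1% DMSO vehicle. Luminescence background-subtracted, normalised to day 0 plate; vehicle = 100%, medium = −100%. IC50/TGI by 4-parameter fit.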

MV-4-11 = experiment: Cell growth inhibition assay (CellTiter-Glo), MV-4-11; type: cell-based, human; conditions: MV-4-11 cells, 4 days; for GI50: Homo sapiens, MV4-11, 96 h, half-maximal growth inhibition; for MV-4-11 TGI: total growth inhibition
Method in brief: as §2

K-562 = experiment: Cell growth inhibition assay (CellTiter-Glo), K-562; type: cell-based, human; conditions: K-562 cells, 4 days; for GI50: Homo sapiens, K562, 96 h, half-maximal growth inhibition; for K-562 TGI: total growth inhibition
Method in brief: as §2

CREBBP = CREBBP (Homo sapiens (Human), UniProt Q92793); experiment: AlphaScreen in-vitro binding assay for CREBBP; conditions: 324 nM His-CREBBP (1081-1197), acetyl-histone H4 (AcK 5, 8, 12) peptide
CREBBP, sequence (Q92793 1081-1197): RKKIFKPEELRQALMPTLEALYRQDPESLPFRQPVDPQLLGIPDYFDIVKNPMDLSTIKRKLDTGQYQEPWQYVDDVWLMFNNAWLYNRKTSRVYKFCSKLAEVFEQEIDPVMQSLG
Method in brief: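 IC50 values were derived by non-linear regression of percent inhibition across 8 compound concentrations. Protein was His-tagged CREBBP bromodomain (1081-1197), peptide acetyl-histone H4 (AcK 5, 8, 12), in HEPES pH 7.5 buffer. Read-out was AlphaScreen with Ni-chelate acceptor and streptavidin donor beads, 35 min at 30° C then 60 min at RT.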

BRD2, sequence (P25440 60-472): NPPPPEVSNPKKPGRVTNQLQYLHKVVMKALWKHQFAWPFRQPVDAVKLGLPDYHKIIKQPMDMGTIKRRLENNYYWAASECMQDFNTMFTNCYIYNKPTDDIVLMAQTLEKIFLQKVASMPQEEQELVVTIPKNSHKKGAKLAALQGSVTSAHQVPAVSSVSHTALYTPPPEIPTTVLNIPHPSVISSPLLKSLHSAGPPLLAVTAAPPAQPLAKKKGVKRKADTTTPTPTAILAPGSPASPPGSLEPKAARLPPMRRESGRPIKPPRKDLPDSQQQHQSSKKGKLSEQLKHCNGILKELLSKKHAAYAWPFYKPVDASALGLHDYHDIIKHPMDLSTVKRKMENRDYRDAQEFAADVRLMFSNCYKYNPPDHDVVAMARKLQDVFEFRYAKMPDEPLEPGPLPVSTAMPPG

Compound	IC50 (BRD2) [nM]	IC50 (BRD3) [nM]	IC50 (BRD4) [nM]	GI50 (THP-1) [nM]	GI50 (MV-4-11) [nM]	GI50 (K-562) [nM]	IC50 (CREBBP) [nM]	THP-1 TGI (THP-1) [nM]	MV-4-11 TGI (MV-4-11) [nM]	K-562 TGI (K-562) [nM]
COc1nccc(-c2cc3c(n2C)C(c2ccc(Cl)cc2)N(c2cc(Cl)c(=O)n(C)c2)C3=O)n1 (stereo not drawn) [Example 39, 5-(5-chloro-1-methyl-6-oxo-1,6-dihydropyridin-3-yl)-6-(4-chlorophenyl)-2-(2-methoxypyrimidin-4-yl)-1-methyl-5,6-dihydropyrrolo[3,4-b]pyrrol-4(1H)-one]	280	220	305	128	78.6	550	1200	238	105	>10000
Cn1c(-c2cccn(C)c2=O)cc2c1C(c1ccc(Cl)cc1)N(c1cc(Cl)c(=O)n(C)c1)C2=O (stereo not drawn) [Example 43, 5-(5-chloro-1-methyl-6-oxo-1,6-dihydropyridin-3-yl)-6-(4-chlorophenyl)-1-methyl-2-(1-methyl-2-oxo-1,2-dihydropyridin-3-yl)-5,6-dihydropyrrolo[3,4-b]pyrrol-4(1H)-one]	90	77	120	276	183	934	690	492	310	>10000
Cc1cc(N2C(=O)c3cc(C4=CCOCC4)n(C)c3C2c2ccc(Cl)cc2)cn2c(C)nnc12 (stereo not drawn) [Example 31, 6-(4-chlorophenyl)-2-(3,6-dihydro-2H-pyran-4-yl)-5-(3,8-dimethyl-[1,2,4]triazolo[4,3-a]pyridin-6-yl)-1-methyl-5,6-dihydropyrrolo[3,4-b]pyrrol-4(1H)-one]	62	47	36	30.9	13.3	57.2	3100	52.5	23.7	>10000
Cc1cc(N2C(=O)c3ccn(C(=O)N(C)C)c3C2c2ccc(Cl)cc2)cn2c(C)nnc12 (stereo not drawn) [Example 24, 6-(4-chlorophenyl)-5-(3,8-dimethyl-[1,2,4]triazolo[4,3-a]pyridin-6-yl)-N,N-dimethyl-4-oxo-5,6-dihydropyrrolo[3,4-b]pyrrole-1(4H)-carboxamide]	220	87	80	96.4	92.8	527	13300	267.5	152	>10000
Cc1cc(N2C(=O)c3cc(-c4cccn(C)c4=O)n(C4CC4)c3C2c2ccc(Cl)cc2)cn(C)c1=O (stereo not drawn) [Example 65, 6-(4-chlorophenyl)-1-cyclopropyl-5-(1,5-dimethyl-6-oxo-1,6-dihydropyridin-3-yl)-2-(1-methyl-2-oxo-1,2-dihydropyridin-3-yl)-5,6-dihydropyrrolo[3,4-b]pyrrol-4(1H)-one]	120	200	220	96.2	80.4	270		167.5	128.5	>10000
Cc1cc(N2C(=O)c3cc(-c4cccc(=O)n4C)n(C)c3C2c2ccc(Cl)cc2)cn(C)c1=O (stereo not drawn) [Example 48, 6-(4-chlorophenyl)-5-(1,5-dimethyl-6-oxo-1,6-dihydropyridin-3-yl)-1-methyl-2-(1-methyl-6-oxo-1,6-dihydropyridin-2-yl)-5,6-dihydropyrrolo[3,4-b]pyrrol-4(1H)-one]	91	76	110	711	150	1680		1160	270	>10000

Second part, led by results:

IC50 (BRD2) [nM]	IC50 (BRD3) [nM]	IC50 (BRD4) [nM]	GI50 (THP-1) [nM]	GI50 (MV-4-11) [nM]	GI50 (K-562) [nM]	IC50 (CREBBP) [nM]	Compound	THP-1 TGI (THP-1) [nM]	MV-4-11 TGI (MV-4-11) [nM]	K-562 TGI (K-562) [nM]
273	200	322	634	326	1130	7150	Cc1cc(N2C(=O)c3ccn(C)c3C2c2ccc(C#N)cc2)cn(C)c1=O (stereo not drawn) [Example 83, 4-(5-(1,5-dimethyl-6-oxo-1,6-dihydropyridin-3-yl)-1-methyl-4-oxo-1,4,5,6-tetrahydropyrrolo[3,4-b]pyrrol-6-yl)benzonitrile]	1270	636	>10000
15	< 11	35	17.9	13.7	48.7	> 37000	CCOC(=O)Nc1cn(C)c2c1C(=O)N(c1cc(C)c3nnn(C)c3n1)C2c1ccc(Cl)cc1 (stereo not drawn) [Example 97, Ethyl (6-(4-chlorophenyl)-5-(3,7-dimethyl-3H-[1,2,3]triazolo[4,5-b]pyridin-5-yl)-1-methyl-4-oxo-1,4,5,6-tetrahydropyrrolo[3,4-b]pyrrol-3-yl)carbamate]	33.45	24.95	>10000
159	87	121	65	37.8	236	1200	Cc1cc(N2C(=O)c3cc(C)n(C)c3C2c2ccc(Cl)cc2)cn(C)c1=O (stereo not drawn) [Example 69, 6-(4-chlorophenyl)-5-(1,5-dimethyl-6-oxo-1,6-dihydropyridin-3-yl)-1,2-dimethyl-5,6-dihydropyrrolo[3,4-b]pyrrol-4(1H)-one]	144	84.3	>10000
44	34	32	53.3	37.3	185	3200	Cc1cc(N2C(=O)c3c(NC(=O)OC(C)(C)C)cn(C)c3C2c2ccc(Cl)cc2)cn2c(C)nnc12 (stereo not drawn) [Example 102, Tert-butyl (6-(4-chlorophenyl)-5-(3,8-dimethyl-[1,2,4]triazolo[4,3-a]pyridin-6-yl)-1-methyl-4-oxo-1,4,5,6-tetrahydropyrrolo[3,4-b]pyrrol-3-yl)carbamate]	118	90.4	>10000
52			76.4	43.9	250	240	Cn1cc(-c2cc3c(n2C2CC2)C(c2ccc(Cl)cc2)N(c2cc(Cl)c(=O)n(C)c2)C3=O)ccc1=O (stereo not drawn) [Example 66, 5-(5-chloro-1-methyl-6-oxo-1,6-dihydropyridin-3-yl)-6-(4-chlorophenyl)-1-cyclopropyl-2-(1-methyl-6-oxo-1,6-dihydropyridin-3-yl)-5,6-dihydropyrrolo[3,4-b]pyrrol-4(1H)-one]	135	87.45	>10000
31			45	19.9	241	5200	CC(=O)Nc1cn(C)c2c1C(=O)N(c1cc(C)c3nnc(C)n3c1)C2c1ccc(Cl)cc1 (stereo not drawn) [Example 103, N-(6-(4-chlorophenyl)-5-(3,8-dimethyl-[1,2,4]triazolo[4,3-a]pyridin-6-yl)-1-methyl-4-oxo-1,4,5,6-tetrahydropyrrolo[3,4-b]pyrrol-3-yl)acetamide]	119	52.6	>10000
